# Values joined by “and” are separate entries in the source; they are usually repeats but may differ in a detail not shown here. Equal values may be shown once. “Also recorded” adds a separate entry of the source. Read-outs that look alike come from different tables or passages of the source.
# Experiments:
# [1] = tested on: mouse red blood cells; test: In vitro red blood cell-based assay (oxygen equilibrium curve, Softron analyzer)
# [2] = Pharmacokinetic study in rats; type: in vivo; details: rat; for AUC(0-inf) / AUC(0-t) / Cmax / Tmax / half-life / MRT inf: male, Sprague-Dawley, plasma; for MRT inf: read-out: MRTInf_obs; for AUC_%Extrap_obs: (AUCinf−AUClast)/AUCinf
# Description: Based on the potential radiosensitization effects in vivo, we performed an in vivo pharmacokinetic (PK) study to preliminarily evaluate the druggability of 19c at a dosage of 100 mg/kg by intraperitoneal injection (ip) or oral administration (po).
# The pharmacokinetic experiments with 19c in rats were performed by Beijing Pharmaron, Inc. All animals were maintained in the pathogen-free barrier animal facility, and the experiments were approved by the Animal Care and Use Committee of the company. The drug solution was formulated into a 10 mg/mL solution with normal saline on the day of administration. After a single dose of 19c (100 mg/kg) by intraperitoneal injection (ip) or oral administration (po) in male Sprague-Dawley rats (n = 3), blood samples were collected 0.25, 0.5, 1, 2, 4, 6, 8 and 24 h post dose and centrifuged at 4000× g for 5 min at 4 °C to obtain plasma. The plasma was diluted 3 times with water. A measure of 2 µL of diluted supernatant was injected into the LC/MS/MS system for quantitative analysis. […] The Phoenix WinNonlin 8.0 software was applied for the calculation of pharmacokinetic parameters.
# [3] = tested on: luciferase-labeled U87MG implanted into Balb/c nude mice brains; test: In vivo radiosensitization on orthotopically transplanted GB; set-up: species or system mouse
# Description: In order to evaluate in vivo antitumor effects, luciferase-labeled U87MG was implanted into Balb/c nude mice brains. A small animal bioluminescence imaging system was applied to trace the tumor formation and dynamic changes in GB size. Cobalt 60 was used for fractionated-dose whole-brain irradiation therapy (IR). The tumor was irradiated with a total dose of 12 Gy in four fractions of 3 Gy at a dose rate of 0.3 Gy/min. Efaproxiral or 19c was administrated at a dosage of 150 mg/kg by intraperitoneal injection (ip) every four days over a period of sixteen days. IR was conducted 15 min after ip.
# Four-week-old female BALB/c nude mice were purchased from Beijing Vital River Laboratory Animal Technology Co., Ltd. Animals were monitored daily by certified veterinary staff and laboratory personnel. All mice used in this study were maintained in a pathogen-free barrier animal facility. The study was in compliance with all relevant ethical regulations regarding animal research. All animal experiments were approved by the Institutional Animal Care and Use Committee at the Beijing Institute of Basic Medical Sciences. The U87-luc cells were processed and resuspended into basal medium at a concentration of 10^7 cells/mL. Next, 8 × 10^5 U87-luc glioma cells were implanted into the right frontal lobes of each nude mouse. Ten days after tumor implantation, tumor-bearing mice were randomly divided into six groups according to the tumor size and subjected to the indicated treatment (n = 6). Administration of drugs (150mg/kg) or vehicle was performed once every 4 days four consecutive times by intraperitoneal injection. All radiation treatments were performed 25 min after the drug or vehicle was given. Tumors on the brains of mice were irradiated at a dosage of 3 Gy four consecutive times using a ^60Co γ irradiator. The dose rate was 0.3 Gy/min. The bodies of the mice were shielded using lead blocks. The tumor progress was tracked by a small animal live bioluminescence imaging system (LB983NC100U, Germany).
# [4] = tested on: mouse red blood cells; test: In vitro red blood cell-based assay (oxygen equilibrium curve, Softron analyzer); details: final effector concentration 2 mM, mean ± SD
# Source text: In the first stage of our research, three series of analogues were designed and synthesized to explore refinement of the hydrophobic parts of 19f, 19m, 24a and 24b; hinge areas of 18g, 19b and 19y; and tail regions of 15c, 15d and 16c, respectively. We used the Softron Analyzer to evaluate the effect of these compounds on the half-blood oxygen saturation(P50) value of red blood cells. The most promising phenoxyaromatic acid compound, efaproxiral, was used as a positive control. […] The results reminded us that the modification of the hydrophobic part or linker extension is beneficial to improve an allosteric effect.
# Eight-week-old female C57BL6J mice were purchased from Beijing Vital River Laboratory Animal Technology Co., Ltd. A total of 540 μL mouse blood was added into the 1.5 mL centrifuge tube, followed by adding 60 μL 3.8% sodium citrate. The mixture was then centrifuged at 1500 rpm for 10 min, the supernatant was carefully aspirated, and the cells were washed three times with PBS solution. After mixing packed red blood cells with Alsever’s solution in a ratio of 1:1, a blood gas analyzer (RADIOMETER ABL 90) was used to analyze the red blood cell density and hemoglobin concentration.
# All of the compounds were prepared as 200 mM stock solutions in DMSO. Oxygen equilibrium measurements were performed with the Softron analyzer (Softron Medical Products, Beijing, China) using mouse red blood cells. The samples were prepared by adding 3 mg hemoglobin equivalent of red blood cells into 3.92 mL loading buffer (100 mM NaCl, 50 mM bis-Tris at pH 7.2 and 25 °C), followed by 20 μL 10% Dimethicone as a defoamer and 20 μL 20% BSA. Afterwards, 40 μL stock solution was added, and the mixture was loaded to the sample cell and fully deoxygenated by blowing into nitrogen at 37 °C for 15 min. Then, the oxygen equilibrium curve was recorded by blowing into oxygen.
# [5] = tested on: U87MG cells; test: Cell Titer-Glo cytotoxicity assay, U87MG; type: cell-based, human
# Description: (§1) For further in vivo evaluation of newly synthesized compounds, 19c and 19t were selected as candidates. Hemoglobin allosteric effectors require a relatively high blood concentration to be effective. Cytotoxicity evaluation was conducted out of consideration for medication safety. HEK293 and U87MG cells were used to evaluate the cytotoxicity.
# (§2) Luciferase-transfected human glioma cells (U87-luc) and HEK293 cells were kindly provided by Dr. Nie and cultured in Dulbecco’s Modified Eagle Medium (CM10013, MacGene) with 10% fetal bovine serum (1966173C, Gibco) and 1% penicillin-streptomycin in a humidified atmosphere of 5% CO2 at 37 °C.
# (§3) Cells were plated in a 96-well plate at a density of 2000 cells/well and then treated with 19c or 19t at gradient concentrations of 10^1, 10^2, 10^3, 10^4, 10^5, 10^6and 10^7 nM. Compounds 19c and 19t were prepared as the sodium salt by adding saturated sodium bicarbonate in the process of stock solution preparation. Cell viability was evaluated on the indicated days after treatment with a Cell Titer-Glo Luminescent Cell Viability Assay kit (G7572, Promega, Madison, WI, USA) according to the manufacturer’s instructions. All data were normalized to those on day 0 and presented as the mean ± standard deviation (SD).
# [6] = tested on: HEK293 cells; test: Cell Titer-Glo cytotoxicity assay, HEK293; type: cell-based
# Description: as §1, §2, §3
compound,measurement,setting,value
"Cc1cc(C)cc(NC(=O)CCc2ccc(OC(C)(C)C(=O)O)cc2)c1 [19c, 2-(4-(3-((3,5-dimethylphenyl)amino)-3-oxopropyl)phenoxy)-2-methylpropanoic acid]",influence on the Bohr effect of red blood cells,"[1]; 2 mM, change in acidity, OEC shift",will not offset the Bohr effect; also recorded: preserved the Bohr effect
same,dose–response relationship of oxygen affinity of hemoglobin,"[1]; different concentrations, oxygen dissociation curve",dose-dependently altered the oxygen affinity of hemoglobin; also recorded: exerts an allosteric effect on hemoglobin at a micromolar level
same,AUC(0-inf),[2]; ip 100 mg/kg,612 µg·h/mL
same,AUC(0-t),"[2]; ip 100 mg/kg, saline",612 µg·h/mL
same,Cmax,"[2]; ip 100 mg/kg, saline",202 µg/mL
same,Tmax,"[2]; ip 100 mg/kg, saline",0.25 h
same,half-life,"[2]; ip 100 mg/kg, saline",2.55 h
same,MRT inf,"[2]; ip 100 mg/kg, saline",2.32 h
same,AUC(0-inf),"[2]; po 100 mg/kg, saline",411 µg·h/mL
same,AUC(0-t),"[2]; po 100 mg/kg, saline",410 µg·h/mL
same,Cmax,"[2]; po 100 mg/kg, saline",111 µg/mL
same,Tmax,"[2]; po 100 mg/kg, saline",2 h
same,half-life,"[2]; po 100 mg/kg, saline",2.78 h
same,MRT inf,"[2]; po 100 mg/kg, saline",2.58 h
same,oral availability,[2],orally available
same,AUCinf,"[2]; ip 100 mg/kg, saline","612,428 h*ng/mL"
same,AUC_%Extrap_obs,[2]; ip 100 mg/kg,0.0362%
same,AUClast/D,[2]; ip 100 mg/kg,6122
same,AUC_%Extrap_obs,[2]; po 100 mg/kg,0.0522%
same,AUClast/D,[2]; po 100 mg/kg,4104
same,clinical symptoms during the PK experiment,[2]; single dose 100 mg/kg ip or po,No abnormal clinical symptoms
same,overall survival time of tumor-bearing mice compared to vehicle control,[3]; 150 mg/kg ip combined with IR,could improve the overall survival time
same,radiosensitization effect in vivo (summary statement),[3]; orthotopically transplanted GB in mouse brains,exhibited a radiosensitization effect; also recorded: effective GB radiosensitizer
same,P50/P50C,[4]; P50C = control with 1% DMSO,2.04 ± 0.04
same,P50,"[4]; 1% DMSO, mouse red blood cells",89.16 ± 5.20 mmHg
same,∆P50,"[4]; ∆P50 = P50 − P50C, mouse red blood cells",45.50 mmHg and 45.50 ± 1.73 mmHg
same,cytotoxicity (summary statement),[5]; U87MG (glioma) cells,no cytotoxicity
same,cytotoxicity,"[5]; U87MG cells, concentration of 5 mM",no cytotoxic effect
same,cytotoxicity (summary statement),[6]; HEK293 (normal) cells,no cytotoxicity
same,cytotoxicity,"[6]; HEK293 cells, concentration of 5 mM",no cytotoxic effect
